Data set [1] deals with von Hippel-Lindau disease tumor suppressor/Son of sevenless homolog 1 (Homo sapiens, UniProt P40337+Q07889, Q61H). Nature of the data set: PROTAC activity at VHL/SOS1 in human NCI-H460 cells harboring KRAS Q61H mutant assessed as induction of SOS1 degradation incubated for 24 hrs by Immunoblot analysis. In kind it is cell-based. Background: In western blotting, separated proteins are transferred to a membrane and probed.

The target of data set [2] is T1, von Hippel-Lindau disease tumor suppressor/Son of sevenless homolog 1 (Homo sapiens) (UniProt Q07889+P40337). Kind of data set: PROTAC activity at VHL/SOS1 in human NCI-H358 cells assessed as induction of SOS1 protein degradation at 0.1 uM incubated for 24 hrs by Immunoblot analysis relative to control. It is filed as cell-based.
Data set [3] addresses T1, von Hippel-Lindau disease tumor suppressor/Son of sevenless homolog 1 (Homo sapiens). Kind of data set: PROTAC activity at VHL/SOS1 in human NCI-H358 cells harboring KRAS G12C mutant with shRNA lentivirus mediated VHL knockdown assessed as induction of SOS1 degradation at 1 uM incubated for 24 hrs by Immunoblot analysis. It is filed as cell-based.
The target is the same in data set [4]. Nature of the data set: PROTAC activity at VHL/SOS1 in human ASPC1 cells harboring KRAS G12D mutant with shRNA lentivirus mediated VHL knockdown assessed as induction of SOS1 degradation at 1 uM incubated for 24 hrs by Immunoblot analysis. It is filed as cell-based.
Data set [5] shares this target. Nature of the data set: PROTAC activity at VHL/SOS1 in human SK-CO-1 cells harboring G12V mutant assessed as induction of SOS1 degradation by measuring maximal efficacy at 1 to 2000 nM incubated for 24 hrs by Immunoblot analysis relative to control. It is filed as cell-based. The conditions noted are these: dose 1-2000 nM.
Data set [6] can be described thus: Toxicity in BALB/c nude mouse xenografted with human ASPC1 cells harboring KRAS G12D mutant assessed as body weight loss at 10 to 20 mg/kg, ip administered once daily for 3 weeks. It is filed as organism-based. The note with it: in vivo, 504 h, dose 10-20 mg/kg.
Data set [7] has as its target T1, von Hippel-Lindau disease tumor suppressor/Son of sevenless homolog 1 (Homo sapiens). Kind of data set: In vivo PROTAC activity at VHL/SOS1 in human ASPC1 cells harboring KRAS G12D mutant xenografted BALB/c nude mouse assessed as induction of SOS1 degradation administered intraperitoneally once daily for 3 weeks by Immunoblot analysis. It is filed as functional. The note with it: dose 10-20 mg/kg, route ip. Background: Xenograft models place foreign cells or tissue in a host animal.

Data set [8] in a line: Toxicity in BALB/c nude mouse xenografted with human SW620 cells harboring KRAS G12V mutant assessed as body weight loss at 10 to 20 mg/kg, ip administered once daily for 2 weeks. It is filed as organism-based, SW-620. The conditions noted are these: in vivo, 336 h, dose 10-20 mg/kg.
The target of data set [9] is T1, von Hippel-Lindau disease tumor suppressor/Son of sevenless homolog 1 (Homo sapiens). Nature of the data set: PROTAC activity at VHL/SOS1 in human A549 cells harboring KRAS G12S mutant assessed as induction of SOS1 degradation at 1 uM incubated for 2 to 4 hrs by Immunoblot analysis. The conditions noted are these: time 2-4 hrs. In kind it is cell-based.
Data set [10] concerns SW-620. Nature of the data set: Antiproliferative activity against human SW620 cells harboring KRAS G12V mutant assessed as inhibition of cell proliferation incubated for 7 days by CellTiterGlo-3D proliferation assay. It is filed as functional, cell-based. The conditions noted are these: SW-620, 168 h. (In ATP-based viability assays light output follows the ATP content of the culture.)

Data set [11] addresses T1, von Hippel-Lindau disease tumor suppressor/Son of sevenless homolog 1 (Homo sapiens). Nature of the data set: PROTAC activity at VHL/SOS1 in human UMUC3 cells harboring KRAS G12C mutant assessed as induction of SOS1 degradation by measuring maximal efficacy at 1 to 2000 nM incubated for 24 hrs by Immunoblot analysis relative to control. It is filed as cell-based. The conditions noted are these: dose 1-2000 nM.

Data set [12] relates to SW-620. Kind of data set: Antitumor activity against human SW620 cells harboring KRAS G12V mutant xenografted in BALB/c nude mouse assessed as tumor growth inhibition at 20 mg/kg, ip administered once daily for 2 weeks relative to control. It is filed as functional. The note with it: SW-620, 336 h, read-out: TGI.
The target in data set [13] is T1, von Hippel-Lindau disease tumor suppressor/Son of sevenless homolog 1 (Homo sapiens). Kind of data set: PROTAC activity at VHL/SOS1 in human NCI-H460 cells harboring KRAS Q61H mutant assessed as induction of SOS1 degradation by measuring maximal efficacy at 1 to 2000 nM incubated for 24 hrs by Immunoblot analysis relative to control. The conditions noted are these: dose 1-2000 nM. In kind it is cell-based.

Data set [14] has the same target. Kind of data set: PROTAC activity at VHL/SOS1 in human SNU1 cells harboring KRAS G12D mutant assessed as induction of SOS1 degradation by measuring maximal efficacy at 1 to 2000 nM incubated for 24 hrs by Immunoblot analysis relative to control. In kind it is cell-based. The note with it: dose 1-2000 nM.
For data set [15] the target is unchanged. Nature of the data set: PROTAC activity at VHL/SOS1 in human ASPC1 cells harboring KRAS G12D mutant assessed as induction of SOS1 degradation at 1 uM preincubated with VHL ligand for 4 hrs followed by compound treatment and measured after 24 hrs by immunoblot analysis. In kind it is cell-based.
In the next data set the test system is ASPC1. Nature of the data set: Downregulation of ZCCHC10 in human ASPC1 cells at 1 uM incubated for 6 hrs by quantitative proteomics analysis. In kind it is functional, cell-based.
The target of data set [16] is T1, von Hippel-Lindau disease tumor suppressor/Son of sevenless homolog 1 (Homo sapiens). Nature of the data set: PROTAC activity at VHL/SOS1 in human ASPC1 cells harboring KRAS G12D mutant assessed as induction of SOS1 degradation at 1 uM preincubated with (R)-1-(4-(4-((1-(3-amino-5-(trifluoromethyl)phenyl)ethyl)amino)-7-methoxy-2-methylquinazolin-6-yl)piperidin-1-yl)ethanone for 4 hrs followed by compound treatment and measured after 24 hrs by immunoblot analysis. In kind it is cell-based.

From ChEMBL document CHEMBL5247656, “Discovery of a Potent, Cooperative, and Selective SOS1 PROTAC ZZ151 with In Vivo Antitumor Efficacy in KRAS-Mutant Cancers” (J Med Chem, 2023) come the findings set out here.

For orientation: EC50 means the midpoint of the concentration-response curve. As usually defined, the Emax is the size of the effect at its maximum, as opposed to the concentration needed. The IC50 is the concentration at which inhibition is half-maximal.

The source made the active and inactive calls. The calls are words filed in the database; no cut-off is given here.

T1 sequence (P40337 whole entry, looked up): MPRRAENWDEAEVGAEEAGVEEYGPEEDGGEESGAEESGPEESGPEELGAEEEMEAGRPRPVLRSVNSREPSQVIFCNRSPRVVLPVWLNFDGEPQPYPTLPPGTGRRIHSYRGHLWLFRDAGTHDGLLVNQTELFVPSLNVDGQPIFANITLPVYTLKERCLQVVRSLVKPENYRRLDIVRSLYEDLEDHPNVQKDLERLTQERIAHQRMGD
T1 sequence (Q07889 whole entry, looked up): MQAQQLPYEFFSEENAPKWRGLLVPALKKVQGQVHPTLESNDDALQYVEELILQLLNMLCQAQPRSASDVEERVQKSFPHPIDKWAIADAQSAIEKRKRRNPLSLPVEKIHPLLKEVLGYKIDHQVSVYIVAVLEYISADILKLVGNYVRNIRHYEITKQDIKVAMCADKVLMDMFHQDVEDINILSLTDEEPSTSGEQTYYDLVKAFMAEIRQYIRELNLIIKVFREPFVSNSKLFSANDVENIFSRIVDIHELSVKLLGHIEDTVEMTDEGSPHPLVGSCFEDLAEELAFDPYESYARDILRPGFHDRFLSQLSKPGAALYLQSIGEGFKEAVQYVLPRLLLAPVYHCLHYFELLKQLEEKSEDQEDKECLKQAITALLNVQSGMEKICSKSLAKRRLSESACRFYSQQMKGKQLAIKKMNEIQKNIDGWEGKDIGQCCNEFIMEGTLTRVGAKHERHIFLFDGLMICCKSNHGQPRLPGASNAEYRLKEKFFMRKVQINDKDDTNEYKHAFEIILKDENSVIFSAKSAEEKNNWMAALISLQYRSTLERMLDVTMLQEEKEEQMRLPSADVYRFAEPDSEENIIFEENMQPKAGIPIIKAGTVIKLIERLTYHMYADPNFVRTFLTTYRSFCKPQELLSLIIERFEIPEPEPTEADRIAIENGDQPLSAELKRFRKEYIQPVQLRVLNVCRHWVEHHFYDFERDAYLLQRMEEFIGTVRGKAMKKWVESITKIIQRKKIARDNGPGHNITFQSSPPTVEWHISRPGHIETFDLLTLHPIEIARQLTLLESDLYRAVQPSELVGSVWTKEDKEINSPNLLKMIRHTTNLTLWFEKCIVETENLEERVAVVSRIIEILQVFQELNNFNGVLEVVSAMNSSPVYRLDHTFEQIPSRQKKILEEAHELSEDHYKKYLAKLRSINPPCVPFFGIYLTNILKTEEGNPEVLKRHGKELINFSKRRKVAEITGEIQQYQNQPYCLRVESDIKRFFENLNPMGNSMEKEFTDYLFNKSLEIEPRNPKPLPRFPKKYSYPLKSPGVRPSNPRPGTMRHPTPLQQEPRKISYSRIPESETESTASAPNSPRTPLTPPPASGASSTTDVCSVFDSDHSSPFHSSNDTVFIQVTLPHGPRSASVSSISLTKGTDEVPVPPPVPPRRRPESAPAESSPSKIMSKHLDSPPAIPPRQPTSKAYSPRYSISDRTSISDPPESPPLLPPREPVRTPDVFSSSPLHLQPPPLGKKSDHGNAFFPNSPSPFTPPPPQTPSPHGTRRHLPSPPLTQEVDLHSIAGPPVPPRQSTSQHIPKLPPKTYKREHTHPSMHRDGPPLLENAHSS

For `COc1cc2nc(C)nc(N[C@H](C)c3cc(N)cc(C(F)(F)F)c3)c2cc1C1CCN(C(=O)CCCCCC(=O)N[C@H](C(=O)N2C[C@H](O)C[C@H]2C(=O)N[C@@H](C)c2ccc(-c3scnc3C)cc2)C(C)(C)C)CC1`, the EC50 in data set [1] worked out at 81.7 nM. In addition, the Activity in [2] was 83.9%; in data set [6], “Non-Toxic”; in data set [7], “Dose-Dependent Effect”; in [8], “Non-Toxic”. Moreover, the result in data set [3], in [4], in [15] and in [16] was inactive. In addition, the Emax in [5], in data set [11], in [13] and in data set [14] was greater than 95% in each case. Besides, the result (in data set [9]; in the data set on ASPC1) was Active. The half-inhibitory concentration (IC50) in the data set on SW-620 [10] was 18.5 nM. In addition, the inhibition in vivo at 20 mg/kg with SW-620 [12] stood at 65.4%.
